From PubChem BioAssay (NCI)
Where “and” joins values, the source holds several entries; their conditions need not be identical. Equal entries are not always repeated.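 Dose response: 5 concentrations. Exposure: 48 h. Format: 96-well plates. Endpoint: linear interpolation; highest concentration if not reached. GI50 is the concentration that inhibits growth by half. TGI denotes the concentration required for complete inhibition of growth.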

How the values were obtained:
Test in all cases: inhibition of tumour cell growth, NCI panel, 48 h
SK-MEL-5 melanoma = test system: SK-MEL-5 melanoma
COLO 205 colon = test system: COLO 205 colon
NCI-H226 lung = test system: NCI-H226 lung
SK-MEL-2 melanoma = test system: SK-MEL-2 melanoma
EKVX NSCLC = test system: EKVX NSCLC
U251 CNS = test system: U251 CNS
OVCAR-5 ovarian = test system: OVCAR-5 ovarian
NCI-H522 lung = test system: NCI-H522 lung
UO-31 renal = test system: UO-31 renal

SMILES	GI50 (SK-MEL-5 melanoma) [µM]	TGI (SK-MEL-5 melanoma)	GI50 (COLO 205 colon)	TGI (COLO 205 colon)	GI50 (NCI-H226 lung)	TGI (NCI-H226 lung)	GI50 (SK-MEL-2 melanoma) [µM]	TGI (SK-MEL-2 melanoma)	GI50 (EKVX NSCLC)	TGI (EKVX NSCLC)	GI50 (U251 CNS)	TGI (U251 CNS)	GI50 (OVCAR-5 ovarian) [µM]	TGI (OVCAR-5 ovarian)	GI50 (NCI-H522 lung)	TGI (NCI-H522 lung)	GI50 (UO-31 renal)	TGI (UO-31 renal)
COc1ccc2c(c1)[n+](=O)c(/C=C/C(=O)c1cc(OC)c(OC)c(OC)c1)c(C)n2[O-]	12.6	34.3 µM	1.65 µM	11.3 µM	22.1 µM	> 100 µM	11.5	28.3 µM	5.82 µM	> 100 µM	5.94 µM	47 µM	28.7	> 100 µM	1.32 µM	3.45 µM	3.57 µM	> 100 µM
Cc1cc(C)c(-c2c(O)c(Br)c(-c3c(C)cc(C)c(Br)c3C)c(O)c2Br)c(C)c1Br	1.77	4.24 µM	1.73 µM	3.54 µM	2.54 µM	9.52 µM	2	6.2 µM	1.62 µM	8.86 µM	2.28 µM	8.54 µM	2.85	9.63 µM	1.67 µM	3.6 µM	1.29 µM	8.22 µM
COc1ccc(CN2c3ccccc3Sc3ccccc32)cc1O	0.438	11.3 µM	0.789 µM	4.6 µM	12.2 µM	35 µM	0.333	19.9 µM	0.378 µM	15.9 µM	0.427 µM	14.5 µM	12.7	36 µM	0.241 µM	0.781 µM	0.751 µM	18.9 µM
NC(=S)c1cccc(C2Nc3ccccc3O2)c1 (centres undefined)	–	> 100 µM	–	> 100 µM	–	> 100 µM	–	> 100 µM	–	> 100 µM	–	> 100 µM	–	> 100 µM	–	> 100 µM	–	> 100 µM
CC(=O)/C(=N\N=C(N)N)c1ccccc1	–	> 100 µM	–	> 100 µM	–	> 100 µM	–	> 100 µM	–	> 100 µM	–	> 100 µM	–	> 100 µM	–	> 100 µM	–	> 100 µM
CSCc1ncc(-c2ccc(C(F)(F)F)cc2)c(NC2CCCCCC2)n1	> 10	> 10 µM	> 10 µM	> 10 µM	> 10 µM	> 10 µM	> 10	> 10 µM	–	–	> 10 µM	> 10 µM	> 10	> 10 µM	–	–	> 10 µM	> 10 µM
Cc1cc(C)nc(NC(=O)COc2ccc(Cl)cc2)c1	–	> 100 µM	–	> 100 µM	–	> 100 µM	–	> 100 µM	–	> 100 µM	–	> 100 µM	–	> 100 µM	–	> 100 µM	–	–
CCOC(=O)c1sc(NC(=O)COc2ccc(/C=C3\CCc4cc(OC)ccc4C3=O)cc2)nc1C	12.4	24.8 µM	15.5 µM	30 µM	13.3 µM	27.3 µM	5.61	21.6 µM	18.5 µM	53.3 µM	8.75 µM	21.8 µM	8.97	24.6 µM	4.56 µM	12.1 µM	1.78 µM	9.64 µM
O=C(O)CCN1C(=S)CSC1=S	–	> 100 µM	–	> 100 µM	–	> 100 µM	–	> 100 µM	–	> 100 µM	–	> 100 µM	–	> 100 µM	–	> 100 µM	–	–
COc1ccc(N=c2nc3sc4cc(Cl)ccc4n3c(N)c2C#N)cc1	1.64	3.42 µM	2.39 µM	6.47 µM	1.92 µM	7.99 µM	2.8	34.7 µM	2.45 µM	> 100 µM	4.38 µM	> 100 µM	5.21	> 100 µM	20.6 µM	> 100 µM	18.3 µM	> 100 µM
O=C(O)C12C=CC(C1)c1ccccc12 (centres undefined)	–	> 100 µM	–	> 100 µM	–	> 100 µM	–	–	–	–	–	> 100 µM	–	> 100 µM	–	–	–	> 100 µM
S=C(Nc1ccc(-c2nc3ccccc3s2)cc1)Nc1ccc(-c2nc3ccccc3s2)cc1	13.5	26.6 µM	27.4 µM	> 100 µM	14 µM	38.8 µM	22.9	45 µM	8.79 µM	30.2 µM	17.2 µM	41.6 µM	20.1	48.8 µM	11.2 µM	26.2 µM	12.4 µM	34 µM
Fc1ccc(-c2ncn(C3CCNCC3)c2-c2ccnc(Oc3ccc(Cl)cc3)n2)cc1	3.22	6.41 µM	3.76 µM	7.31 µM	–	–	4.45	8.67 µM	6 µM	> 21.3 µM	3.66 µM	7.24 µM	5.09	14.9 µM	4.49 µM	9.34 µM	3.38 µM	12.2 µM
CCCC(=O)Nc1cc(/C=C/C(=O)N2C[C@@H]3C[C@]34C2=CC(=O)c2[nH]cc(C)c24)n(C)c1	–	0.334 µM	–	–	–	3.76 µM	0.151	0.817 µM and 0.287 µM	0.172 µM	–	0.0359 µM	3.72 µM and 13.8 µM	0.142	–	0.0287 µM	0.219 µM and 0.141 µM	–	4.34 µM
O=C(NNC(=O)c1ccncc1)C(=O)Nc1cc(Cl)c(Cl)cc1Cl	–	> 100 µM	–	–	–	> 100 µM	–	> 100 µM	–	> 100 µM	–	> 100 µM	–	> 100 µM	–	> 100 µM	–	> 100 µM
CC(C)(C)OC(=O)NCCCCCCCCCCCCn1c2c(c3ccccc3c1=O)C(=O)c1ccccc1-2	> 100	> 100 µM	> 100 µM	> 100 µM	58.1 µM	> 100 µM	18.1	38.2 µM	85.7 µM	> 100 µM	36 µM	> 100 µM	75.9	> 100 µM	45 µM	> 100 µM	> 100 µM	> 100 µM
O=C(NC1=C(Cl)C(=O)c2ccccc2C1=O)C(=O)c1c(O)c2ccccc2oc1=O	–	1.6 µM	–	17.9 µM	–	28.9 µM	–	10.3 µM	–	22.4 µM	–	20.9 µM	–	26.3 µM	–	16.1 µM	–	21.1 µM

SMILES	GI50 (SK-MEL-5 melanoma) [µM]	TGI (SK-MEL-5 melanoma)	GI50 (COLO 205 colon)	TGI (COLO 205 colon)	GI50 (NCI-H226 lung)	TGI (NCI-H226 lung)	GI50 (SK-MEL-2 melanoma) [µM]	TGI (SK-MEL-2 melanoma)	GI50 (EKVX NSCLC)	TGI (EKVX NSCLC)	GI50 (U251 CNS)	TGI (U251 CNS)	GI50 (OVCAR-5 ovarian) [µM]	TGI (OVCAR-5 ovarian)	GI50 (NCI-H522 lung)	TGI (NCI-H522 lung)	GI50 (UO-31 renal)	TGI (UO-31 renal)
CCNc1ccc2c(c1)C(=O)N(OS(C)(=O)=O)C2=O	–	> 100 µM	–	> 100 µM	–	97.1 µM	–	> 100 µM	–	> 100 µM	–	> 100 µM	–	–	–	34.8 µM	–	> 100 µM
Cn1cc(-c2csc(-c3ccc(Cl)cc3)n2)c2cccnc21	13.9	27.6 µM	13.7 µM	26.6 µM	14.8 µM	43.6 µM	17.4	42.5 µM	2.85 µM	26.1 µM	14.6 µM	29.4 µM	14.2	32.7 µM	13.6 µM	38.2 µM	13.6 µM	38.6 µM
COc1ccc(/C=C(\C#N)c2cc(OC)c(OC)c(OC)c2)cc1	0.0182	0.0644 µM	0.011 µM	0.0251 µM	0.0252 µM	0.0706 µM	0.0356	> 100 µM	0.0656 µM	> 100 µM	0.0359 µM	> 100 µM	0.0424	> 100 µM	< 0.01 µM	0.0268 µM	0.0389 µM	58.6 µM
COc1ccc(C(=O)c2ccccc2)c(O)c1	37.9	> 100 µM	> 100 µM	> 100 µM	> 100 µM	> 100 µM	> 100	> 100 µM	40.9 µM	> 100 µM	66.3 µM	> 100 µM	> 100	> 100 µM	89.9 µM	> 100 µM	17 µM	> 100 µM
OC[C@H]1N[C@H](CO)[C@@H](O)[C@H]1O	–	> 100 µM	–	> 100 µM	–	> 100 µM	–	> 100 µM	–	> 100 µM	–	> 100 µM	–	> 100 µM	–	> 100 µM	–	> 100 µM
CC(=O)c1nc(-c2ccc(C[C@@H](CNC(=O)CN(C)C)NC(=O)c3ccc(OC(C)C)c(Cl)c3)cc2)cn1C	0.0707	5.51 µM	0.0292 µM	3.84 µM	12.6 µM	33.9 µM	0.061	15.5 µM	0.0455 µM	17.8 µM	0.0215 µM	16.7 µM	0.0618	18.6 µM	< 0.0181 µM	13.8 µM	0.723 µM	17.6 µM
O=C(OCC1=CC(=O)c2ccccc2C1=O)c1ccccc1	1.31	2.68 µM	2.74 µM	10.7 µM	14.1 µM	31.5 µM	12.3	35.9 µM	12.9 µM	27.5 µM	14.6 µM	28.5 µM	24.1	41.1 µM	15 µM	28.6 µM	15.6 µM	29.1 µM
COC(=O)c1c(C(=O)O)c(-c2ccccc2)c(-c2ccccc2)c(-c2ccccc2)c1-c1ccccc1	> 100	> 100 µM	> 100 µM	> 100 µM	> 100 µM	> 100 µM	> 100	> 100 µM	> 100 µM	> 100 µM	> 100 µM	> 100 µM	> 100	> 100 µM	88.5 µM	> 100 µM	14.7 µM	43.5 µM
Cc1c(-c2ccc(-c3ccccc3F)cc2)nc2ccc(F)cc2c1C(=O)O	2.37	58.6 µM and 186 µM	17.4 µM and 3.81 µM	97.7 µM and 234 µM	38.3 µM and 29.4 µM	216 µM and 209 µM	135	148 µM and 909 µM	77 µM and 53.3 µM	173 µM and 448 µM	0.0723 µM and 0.5 µM	104 µM and 259 µM	–	209 µM and 371 µM	9.89 µM and 67.3 µM	93.8 µM and 434 µM	1.85 µM and 2.65 µM	78.9 µM and 105 µM
CCOC1=C/C(=N\Nc2ccc([N+](=O)[O-])cc2)CCC1	–	73.3 µM	–	51.3 µM	–	> 100 µM	–	58.1 µM	–	> 100 µM	–	54.1 µM	–	> 100 µM	–	23.4 µM	–	35.1 µM
CCCCS(=O)(=O)c1cc(Nc2ccc(O)c3c2C(=O)c2ccccc2C3=O)ccc1C	–	–	–	–	> 100 µM	> 100 µM	26.5	> 100 µM	–	–	35.8 µM	> 100 µM	> 100	> 100 µM	> 100 µM	> 100 µM	> 100 µM	> 100 µM
COc1cc(C=NCC(=O)CSC(c2ccccc2)c2ccccc2)ccc1O	4.83	18.2 µM	10.6 µM	22.4 µM	16.8 µM	38.5 µM	14.9	28.7 µM	14.3 µM	50.7 µM	14 µM	26.9 µM	16.4	30.4 µM	–	–	12.7 µM	29.1 µM
COc1ccc(C2=NNC(c3sc(Cl)nc3Cl)C2)cc1 (centres undefined)	3.51	14.3 µM	2.17 µM	4.4 µM	2.85 µM	> 100 µM	5.47	21 µM	–	–	9.08 µM	22.1 µM	9.21	26.4 µM	2.23 µM	7.69 µM	6.62 µM	20.3 µM
COc1ccc(-c2cn3ccnc3c(-c3ccc(Cl)cc3)n2)cc1	4.06	21.1 µM	5.49 µM	> 100 µM	42.8 µM	> 100 µM	35.2	> 100 µM	2.39 µM	> 100 µM	–	–	9.52	> 100 µM	> 100 µM	> 100 µM	33.1 µM	> 100 µM
C/C(=N\NC(=S)N1CCCC1)c1ccccn1	0.0348	0.42 µM	< 0.01 µM	10.8 µM	< 0.01 µM	2.85 µM	0.242	14.4 µM	–	–	< 0.01 µM	11.9 µM	0.0763	14.8 µM	0.171 µM	6.09 µM	< 0.011 µM	3.18 µM
C[C@@H]1CC2(C[C@@H](C)C3[C@@H](CC4(C)CCCC5C6=CC(O)(CC[C@]34C)OC6=CC(=O)OC5(C)C)O2)OC1=O (some centres undefined)	–	> 100 µM	–	> 100 µM	–	> 100 µM	–	> 100 µM	–	–	–	> 100 µM	–	> 100 µM	–	> 100 µM	–	> 100 µM
